From PubChem BioAssay AID256 (DTP/NCI, 2004)
Where “and” joins values, the source holds several entries; their conditions need not be identical. Identical values can stand only once. Inconclusive results and toxic doses are left out.

System: CD2F1 mice, L1210 leukemia ip, survival T/C
Assay: NCI In Vivo Anticancer Drug Screen. Data for tumor model L1210 Leukemia (intraperitoneal) in CD2F1 (CDF1) mice
Details: higher = longer survival
Method in brief: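 Tumor-bearing mice (transplanted tumor) were split into treated and vehicle control groups, and the measured endpoint of each treated group was divided by that of its vehicle controls.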

[1] = endpoint: mean survival time, dose: 100.0 mg/kg/injection, schedule: Q04DX002 (ip), vehicle: saline with Tween-80
[2] = endpoint: mean survival time, dose: 200.0 mg/kg/injection, schedule: Q04DX002 (ip), vehicle: saline with Tween-80
[3] = endpoint: mean survival time, dose: 100.0 mg/kg/injection, schedule: Q01DX009 (ip), vehicle: saline with Tween-80
[4] = endpoint: mean survival time, dose: 100.0 mg/kg/injection, schedule: Q04DX003 (ip), vehicle: saline with Tween-80
[5] = endpoint: mean survival time, dose: 200.0 mg/kg/injection, schedule: Q01DX009 (ip), vehicle: saline with Tween-80
[6] = endpoint: mean survival time, dose: 200.0 mg/kg/injection, schedule: Q04DX003 (ip), vehicle: saline with Tween-80
[7] = endpoint: mean survival time, dose: 400.0 mg/kg/injection, schedule: Q01DX009 (ip), vehicle: saline with Tween-80
[8] = endpoint: mean survival time, dose: 400.0 mg/kg/injection, schedule: Q04DX003 (ip), vehicle: saline with Tween-80

SMILES: O=C(c1cccnc1)c1cc2ccccc2n1S(=O)(=O)c1ccccc1
- T/C (endpoint: mean survival time, dose: 100.0 mg/kg/injection, schedule: Q01DX001 (ip), vehicle: saline with Tween-80): 97 % of control
- T/C (endpoint: mean survival time, dose: 200.0 mg/kg/injection, schedule: Q01DX001 (ip), vehicle: saline with Tween-80): 97 % of control
- T/C (endpoint: mean survival time, dose: 400.0 mg/kg/injection, schedule: Q01DX001 (ip), vehicle: saline with Tween-80): 97 % of control

SMILES: NCCCNCCCCNCCCN
- T/C (endpoint: median survival time, dose: 24.75 mg/kg/injection, schedule: Q04DX003 (ip), vehicle: saline): 101 % of control
- T/C (endpoint: median survival time, dose: 49.5 mg/kg/injection, schedule: Q04DX003 (ip), vehicle: saline): 107 % of control

SMILES: C[n+]1c(-c2ccc(/C=N/NC(=O)c3ccc(C(=O)N/N=C/c4ccc(-c5cn6ccccc6[n+]5C)cc4)cc3)cc2)cn2ccccc21
- T/C (endpoint: median survival time, dose: 25.0 mg/kg/injection, schedule: Q01DX005 (ip), vehicle: saline with Tween-80): 162 % of control
- T/C (endpoint: median survival time, dose: 43.2 mg/kg/injection, schedule: Q01DX005 (ip), vehicle: saline with Tween-80): 200 % of control
- T/C (endpoint: median survival time, dose: 72.0 mg/kg/injection, schedule: Q01DX005 (ip), vehicle: saline with Tween-80): 362 % of control
- T/C (endpoint: median survival time, dose: 100.0 mg/kg/injection, schedule: Q01DX005 (ip), vehicle: saline with Tween-80): 307 % of control
- T/C (endpoint: median survival time, dose: 120.0 mg/kg/injection, schedule: Q01DX005 (ip), vehicle: saline with Tween-80): 375 % of control
- T/C (endpoint: median survival time, dose: 200.0 mg/kg/injection, schedule: Q01DX005 (ip), vehicle: saline with Tween-80): 329 % of control and 375 % of control
- T/C (endpoint: median survival time, dose: 333.33 mg/kg/injection, schedule: Q01DX005 (ip), vehicle: saline with Tween-80): 162 % of control
- T/C (endpoint: median survival time, dose: 400.0 mg/kg/injection, schedule: Q01DX005 (ip), vehicle: saline with Tween-80): 329 % of control

SMILES: O=[N+]1C=CC(=NN=c2ccn([O-])cc2)C=C1
- T/C [1]: 100 % of control
- T/C [2]: 96 % of control

SMILES: CNC(=O)OC[C@H]1C2=C(C(=O)C(C)=C(N)C2=O)N2C[C@H]3N[C@H]3[C@@]12OC
- T/C (endpoint: mean survival time, dose: 13.75 mg/kg/injection, schedule: Q01DX001 (ip), vehicle: carboxymethylcellulose (CMC)): 113 % of control

SMILES: c1csc(C[N+]23CN4CN(CN(C4)C2)C3)c1
- T/C (endpoint: median survival time, dose: 12.5 mg/kg/injection, schedule: Q01DX009 (ip), vehicle: saline): 103 % of control
- T/C (endpoint: median survival time, dose: 25.0 mg/kg/injection, schedule: Q01DX009 (ip), vehicle: saline): 107 % of control
- T/C (endpoint: median survival time, dose: 50.0 mg/kg/injection, schedule: Q01DX009 (ip), vehicle: saline): 107 % of control
- T/C (endpoint: median survival time, dose: 100.0 mg/kg/injection, schedule: Q01DX009 (ip), vehicle: saline): 108 % of control
- T/C (endpoint: median survival time, dose: 200.0 mg/kg/injection, schedule: Q01DX009 (ip), vehicle: saline): 101 % of control
- T/C (endpoint: median survival time, dose: 400.0 mg/kg/injection, schedule: Q01DX009 (ip), vehicle: saline): 109 % of control

SMILES: CCCCNC(=O)Oc1ccc(OCc2ccccc2)cc1
- T/C [3]: 96 % of control
- T/C [4]: 94 % of control
- T/C [5]: 89 % of control
- T/C [6]: 91 % of control
- T/C [7]: 92 % of control

SMILES: NC(Cc1cc(I)c(Oc2cc(I)c(O)c(I)c2)c(I)c1)C(=O)O (stereo unspecified)
- T/C (endpoint: mean survival time, dose: 0.04 mg/kg/injection, schedule: Q01DX009 (ip), vehicle: saline + alcohol): 96 % of control
- T/C (endpoint: mean survival time, dose: 0.04 mg/kg/injection, schedule: Q01DX009 (ip), vehicle: saline): 88 % of control and 96 % of control
- T/C (endpoint: mean survival time, dose: 0.16 mg/kg/injection, schedule: Q01DX009 (ip), vehicle: saline + alcohol): 102 % of control
- T/C (endpoint: mean survival time, dose: 0.16 mg/kg/injection, schedule: Q01DX009 (ip), vehicle: saline): 91 % of control and 98 % of control
- T/C (endpoint: mean survival time, dose: 0.25 mg/kg/injection, schedule: Q01DX009 (ip), vehicle: saline): 93 % of control
- T/C (endpoint: mean survival time, dose: 0.63 mg/kg/injection, schedule: Q01DX009 (ip), vehicle: saline): 94 % of control
- T/C (endpoint: mean survival time, dose: 0.64 mg/kg/injection, schedule: Q01DX009 (ip), vehicle: saline + alcohol): 94 % of control
- T/C (endpoint: mean survival time, dose: 0.64 mg/kg/injection, schedule: Q01DX009 (ip), vehicle: saline): 87 % of control and 94 % of control
- T/C (endpoint: mean survival time, dose: 1.0 mg/kg/injection, schedule: Q01DX009 (ip), vehicle: saline): 96 % of control
- T/C (endpoint: mean survival time, dose: 2.0 mg/kg/injection, schedule: Q01DX009 (ip), vehicle: saline): 88 % of control
- T/C (endpoint: mean survival time, dose: 2.5 mg/kg/injection, schedule: Q01DX009 (ip), vehicle: saline + alcohol): 93 % of control
- T/C (endpoint: mean survival time, dose: 2.5 mg/kg/injection, schedule: Q01DX009 (ip), vehicle: saline): 91 % of control and 92 % of control and 94 % of control
- T/C (endpoint: mean survival time, dose: 8.0 mg/kg/injection, schedule: Q01DX009 (ip), vehicle: saline): 86 % of control and 88 % of control and 90 % of control
- T/C (endpoint: mean survival time, dose: 10.0 mg/kg/injection, schedule: Q01DX009 (ip), vehicle: saline + alcohol): 94 % of control
- T/C (endpoint: mean survival time, dose: 10.0 mg/kg/injection, schedule: Q01DX009 (ip), vehicle: saline): 89 % of control and 90 % of control and 92 % of control
- T/C (endpoint: mean survival time, dose: 16.0 mg/kg/injection, schedule: Q01DX009 (ip), vehicle: saline): 86 % of control and 89 % of control
- T/C (endpoint: mean survival time, dose: 32.0 mg/kg/injection, schedule: Q01DX009 (ip), vehicle: saline): 83 % of control and 89 % of control
- T/C (endpoint: mean survival time, dose: 40.0 mg/kg/injection, schedule: Q01DX009 (ip), vehicle: saline): 88 % of control
- T/C (endpoint: mean survival time, dose: 64.0 mg/kg/injection, schedule: Q01DX009 (ip), vehicle: saline): 87 % of control and 89 % of control
- T/C (endpoint: mean survival time, dose: 128.0 mg/kg/injection, schedule: Q01DX009 (ip), vehicle: saline): 87 % of control and 90 % of control

SMILES: C=CCCCCn1c2ccccc2c2c(C)c3cnccc3c(C)c21
- T/C [3]: 102 % of control
- T/C [5]: 102 % of control
- T/C [7]: 97 % of control

SMILES: CCCCN=C=C(c1ccccc1)c1ccccc1
- T/C (endpoint: mean survival time, dose: 25.0 mg/kg/injection, schedule: Q04DX002 (ip), vehicle: other): 97 % of control
- T/C (endpoint: mean survival time, dose: 50.0 mg/kg/injection, schedule: Q04DX002 (ip), vehicle: other): 86 % of control
- T/C (endpoint: mean survival time, dose: 100.0 mg/kg/injection, schedule: Q04DX002 (ip), vehicle: other): 89 % of control

SMILES: O=c1c2cc([N+](=O)[O-])cc3c2-c2c4c(cc([N+](=O)[O-])cc14)c(O)c1cc([N+](=O)[O-])cc(c3=O)c21
- T/C [3]: 103 % of control
- T/C [5]: 117 % of control
- T/C [7]: 113 % of control

SMILES: CC1=C(C)CC(C(Cl)(Cl)Cl)C([N+](=O)[O-])C1 (stereo unspecified)
- T/C [4]: 98 % of control
- T/C [6]: 96 % of control

SMILES: Clc1ccc(N=Cc2ccc3c(c2)OCO3)cc1
- T/C (endpoint: mean survival time, dose: 100.0 mg/kg/injection, schedule: Q04DX003 (ip), vehicle: other): 91 % of control
- T/C (endpoint: mean survival time, dose: 200.0 mg/kg/injection, schedule: Q04DX003 (ip), vehicle: other): 96 % of control
- T/C (endpoint: mean survival time, dose: 400.0 mg/kg/injection, schedule: Q04DX003 (ip), vehicle: other): 100 % of control

SMILES: O=C(O)CC(NCc1ccccc1)C(=O)O (stereo unspecified)
- T/C [4]: 103 % of control
- T/C [6]: 100 % of control
- T/C [8]: 97 % of control

SMILES: O=C1C=C(Nc2cccc(C(=O)O)c2)c2ccccc2C1=O
- T/C (endpoint: mean survival time, dose: 75.0 mg/kg/injection, schedule: Q01DX001 (ip), vehicle: saline): 101 % of control
- T/C (endpoint: mean survival time, dose: 300.0 mg/kg/injection, schedule: Q01DX001 (ip), vehicle: saline): 101 % of control

SMILES: O=C(O)C(O)C(O)C(O)C(O)CO (stereo unspecified)
- T/C (endpoint: mean survival time, dose: 50.0 mg/kg/injection, schedule: Q01DX009 (ip), vehicle: saline with Tween-80): 109 % of control
- T/C [3]: 97 % of control
- T/C [5]: 106 % of control

SMILES: COc1ccc(OCc2ccc(OC)c(OC)c2)cc1
- T/C [1]: 91 % of control
- T/C [2]: 87 % of control
- T/C (endpoint: mean survival time, dose: 400.0 mg/kg/injection, schedule: Q04DX002 (ip), vehicle: saline with Tween-80): 91 % of control

SMILES: C=C(C)C12OC3(CCCCCCCCC)OC1C1C4OC4(COC(=O)CCCCCCCCCCCCCCC)C(O)C4(O)C(=O)C(C)=CC4C1(O3)C(C)C2OC(=O)c1ccccc1 (stereo unspecified)
- T/C (endpoint: mean survival time, dose: 5.0 micrograms/kg/injection, schedule: Q01DX009 (ip), vehicle: saline + alcohol): 97 % of control
- T/C (endpoint: mean survival time, dose: 10.0 micrograms/kg/injection, schedule: Q01DX009 (ip), vehicle: saline + alcohol): 117 % of control
- T/C (endpoint: mean survival time, dose: 20.0 micrograms/kg/injection, schedule: Q01DX009 (ip), vehicle: saline + alcohol): 105 % of control
- T/C (endpoint: mean survival time, dose: 40.0 micrograms/kg/injection, schedule: Q01DX009 (ip), vehicle: saline + alcohol): 112 % of control

SMILES: O=c1[nH]cnc2c1ncn2C1CC(CO)C(O)OC1O (stereo unspecified)
- T/C (endpoint: mean survival time, dose: 100.0 mg/kg/injection, schedule: Q04DX002 (ip), vehicle: saline): 164 % of control
- T/C (endpoint: mean survival time, dose: 200.0 mg/kg/injection, schedule: Q04DX002 (ip), vehicle: saline): 188 % of control

SMILES: CCCC(Sc1nc(N)nc2nc[nH]c12)C(=O)O (stereo unspecified)
- T/C (endpoint: mean survival time, dose: 25.0 mg/kg/injection, schedule: Q04DX003 (ip), vehicle: saline with Tween-80): 103 % of control
- T/C (endpoint: mean survival time, dose: 50.0 mg/kg/injection, schedule: Q04DX003 (ip), vehicle: saline with Tween-80): 110 % of control
- T/C [4]: 118 % of control
- T/C (endpoint: mean survival time, dose: 150.0 mg/kg/injection, schedule: Q04DX003 (ip), vehicle: saline with Tween-80): 151 % of control
- T/C (endpoint: mean survival time, dose: 300.0 mg/kg/injection, schedule: Q04DX003 (ip), vehicle: saline with Tween-80): 156 % of control
- T/C [8]: 168 % of control

SMILES: O=S(=O)(C1CCCCC1)N1N=NC2CCCCC21 (stereo unspecified)
- T/C [4]: 100 % of control
- T/C [6]: 102 % of control
